Measurements from ChEMBL document CHEMBL3232857, “Selective and potent morpholinone inhibitors of the MDM2-p53 protein-protein interaction” (J Med Chem, 2014).
Each block holds one compound with its values, some of them ahead of it.

Legend:
[1] = (§1) Intrinsic clearance in human hepatocytes measured per 10^6 cells; type: ADME, cell-based, Hepatocyte; settings: read-out: CLH
[2] = Intrinsic clearance in dog hepatocytes measured per 10^6 cells; type: ADME, cell-based, Canis lupus familiaris, Hepatocyte
[3] = Half life in rat at 0.5 mg/kg, iv; type: ADME, organism-based; design: dose 0.5 mg/kg, route intravenous; settings: in vivo
Hepatocyte [4] = assay: (§2) Intrinsic clearance in rat hepatocytes measured per 10^6 cells; type: ADME, cell-based
Hepatocyte [5] = assay: (§3) Intrinsic clearance in mouse hepatocytes measured per 10^6 cells; type: ADME, cell-based
[6] = Clearance in rat at 0.5 mg/kg, iv; type: ADME, organism-based; design: dose 0.5 mg/kg, route intravenous; settings: in vivo
Hepatocyte [7] = assay: as §1; type: ADME, cell-based
[8] = Drug metabolism in cynomolgus monkey hepatocytes assessed as (2S,3S,4S,5R,6S)-6-(2-((2R,5R,6R)-4-((S)-2-(tert-butylsulfonyl)-1-cyclopropylethyl)-6-(3-chlorophenyl)-5-(4-chlorophenyl)-3-oxomorpholin-2-yl)acetoxy)-3,4,5-trihydroxytetrahydro-2H-pyran-2-carboxylic acid formation at 10 uM by LC-MS/MS analysis; type: ADME, cell-based, Macaca fascicularis, Hepatocyte
[9] = Drug metabolism in mouse hepatocytes assessed as 2-((2R,5R,6R)-6-(3-chlorophenyl)-5-(4-chlorophenyl)-4-((S)-1-cyclopropyl-2-(1-hydroxy-2-methylpropan-2-ylsulfonyl)ethyl)-3-oxomorpholin-2-yl)acetic acid formation at 10 uM by LC-MS/MS analysis; type: ADME, cell-based, Hepatocyte
[10] = Drug metabolism in human hepatocytes assessed as 2-((2R,5R,6R)-6-(3-chlorophenyl)-5-(4-chlorophenyl)-4-((S)-1-cyclopropyl-2-(1-hydroxy-2-methylpropan-2-ylsulfonyl)ethyl)-3-oxomorpholin-2-yl)acetic acid formation at 10 uM by LC-MS/MS analysis; type: ADME, cell-based, Hepatocyte
[11] = Drug metabolism in cynomolgus monkey hepatocytes assessed as 2-((2R,5R,6R)-6-(3-chlorophenyl)-5-(4-chlorophenyl)-4-((S)-1-cyclopropyl-2-(1-hydroxy-2-methylpropan-2-ylsulfonyl)ethyl)-3-oxomorpholin-2-yl)acetic acid formation at 10 uM by LC-MS/MS analysis; type: ADME, cell-based, Macaca fascicularis, Hepatocyte
[12] = Drug metabolism in rat hepatocytes assessed as (2S,3S,4S,5R,6S)-6-(2-((2R,5R,6R)-4-((S)-2-(tert-butylsulfonyl)-1-cyclopropylethyl)-6-(3-chlorophenyl)-5-(4-chlorophenyl)-3-oxomorpholin-2-yl)acetoxy)-3,4,5-trihydroxytetrahydro-2H-pyran-2-carboxylic acid formation at 10 uM by LC-MS/MS analysis; type: ADME, cell-based, Hepatocyte
[13] = Drug metabolism in rat hepatocytes assessed as 2-((2R,5R,6R)-6-(3-chlorophenyl)-5-(4-chlorophenyl)-4-((S)-1-cyclopropyl-2-(1-hydroxy-2-methylpropan-2-ylsulfonyl)ethyl)-3-oxomorpholin-2-yl)acetic acid formation at 10 uM by LC-MS/MS analysis; type: ADME, cell-based, Hepatocyte
[14] = as §2; type: ADME, cell-based, Hepatocyte; settings: read-out: CLH
[15] = as §3; type: ADME, cell-based, Hepatocyte; settings: read-out: CLH
[16] = Drug metabolism in human hepatocytes assessed as (2S,3S,4S,5R,6S)-6-(2-((2R,5R,6R)-4-((S)-2-(tert-butylsulfonyl)-1-cyclopropylethyl)-6-(3-chlorophenyl)-5-(4-chlorophenyl)-3-oxomorpholin-2-yl)acetoxy)-3,4,5-trihydroxytetrahydro-2H-pyran-2-carboxylic acid formation at 10 uM by LC-MS/MS analysis; type: ADME, cell-based, Hepatocyte
[17] = Drug metabolism in dog hepatocytes assessed as (2S,3S,4S,5R,6S)-6-(2-((2R,5R,6R)-4-((S)-2-(tert-butylsulfonyl)-1-cyclopropylethyl)-6-(3-chlorophenyl)-5-(4-chlorophenyl)-3-oxomorpholin-2-yl)acetoxy)-3,4,5-trihydroxytetrahydro-2H-pyran-2-carboxylic acid formation at 10 uM by LC-MS/MS analysis; type: ADME, cell-based, Canis lupus familiaris, Hepatocyte
[18] = Drug metabolism in dog hepatocytes assessed as 2-((2R,5R,6R)-6-(3-chlorophenyl)-5-(4-chlorophenyl)-4-((S)-1-cyclopropyl-2-(1-hydroxy-2-methylpropan-2-ylsulfonyl)ethyl)-3-oxomorpholin-2-yl)acetic acid formation at 10 uM by LC-MS/MS analysis; type: ADME, cell-based, Canis lupus familiaris, Hepatocyte
[19] = Drug metabolism in mouse hepatocytes assessed as (2S,3S,4S,5R,6S)-6-(2-((2R,5R,6R)-4-((S)-2-(tert-butylsulfonyl)-1-cyclopropylethyl)-6-(3-chlorophenyl)-5-(4-chlorophenyl)-3-oxomorpholin-2-yl)acetoxy)-3,4,5-trihydroxytetrahydro-2H-pyran-2-carboxylic acid formation at 10 uM by LC-MS/MS analysis; type: ADME, cell-based, Hepatocyte

Compound: CC[C@@H](CN(c1ccccc1F)S(=O)(=O)C(C)C)N1C(=O)[C@@H](CC(=O)O)O[C@H](c2cccc(Cl)c2)[C@H]1c1ccc(Cl)cc1
- hepatocyte CLint [1]: 15 µL/min/1e6 cells

Compound: CC[C@@H](CS(=O)(=O)C(C)(C)C)N1C(=O)[C@@H](CC(=O)O)O[C@H](c2cccc(Cl)c2)[C@H]1c1ccc(Cl)cc1
- hepatocyte CLint [2]: 15.5 µL/min/1e6 cells
- half-life [3]: 4.1 h
- hepatocyte CLint (Hepatocyte [4]): 1.8 µL/min/1e6 cells
- hepatocyte CLint (Hepatocyte [5]): 12 µL/min/1e6 cells
- hepatocyte CLint [1]: 1.9 µL/min/1e6 cells
- clearance [6]: 3.83 mL/min/kg

Compound: CC[C@@H](CS(=O)(=O)C1COC1)N1C(=O)[C@@H](CC(=O)O)O[C@H](c2cccc(Cl)c2)[C@H]1c1ccc(Cl)cc1
- hepatocyte CLint [1]: 6.6 µL/min/1e6 cells

Compound: CC(C)[C@@H](CS(=O)(=O)C(C)(C)C)N1C(=O)[C@@H](CC(=O)O)O[C@H](c2cccc(Cl)c2)[C@H]1c1ccc(Cl)cc1
- half-life [3]: 6 h
- hepatocyte CLint [1]: 1.7 µL/min/1e6 cells
- clearance [6]: 1.83 mL/min/kg

Compound: CC[C@@H](CS(=O)(=O)C1CCCC1)N1C(=O)[C@@H](CC(=O)O)O[C@H](c2cccc(Cl)c2)[C@H]1c1ccc(Cl)cc1
- hepatocyte CLint [1]: 12 µL/min/1e6 cells

Compound: CC(C)(C)S(=O)(=O)C[C@H](CC(F)(F)F)N1C(=O)[C@@H](CC(=O)O)O[C@H](c2cccc(Cl)c2)[C@H]1c1ccc(Cl)cc1
- half-life [3]: 4 h
- hepatocyte CLint [1]: 4.7 µL/min/1e6 cells
- clearance [6]: 7.17 mL/min/kg

Compound: CC[C@@H](CS(=O)(=O)C(C)(C)C)N1C(=O)[C@@](C)(CC(=O)O)C[C@H](c2cccc(Cl)c2)[C@H]1c1ccc(Cl)cc1
- hepatocyte CLint [2]: 68 µL/min/1e6 cells
- hepatocyte CLint (Hepatocyte [4]): 6.7 µL/min/1e6 cells
- hepatocyte CLint (Hepatocyte [5]): 18 µL/min/1e6 cells
- hepatocyte CLint (Hepatocyte [7]): 15 µL/min/1e6 cells

Compound: CC[C@@H](CS(=O)(=O)CC(C)(C)C)N1C(=O)[C@@H](CC(=O)O)O[C@H](c2cccc(Cl)c2)[C@H]1c1ccc(Cl)cc1
- hepatocyte CLint [1]: 8.6 µL/min/1e6 cells

Compound: CC(C)(C)S(=O)(=O)C[C@H](C1CC1)N1C(=O)[C@@H](CC(=O)O)O[C@H](c2cccc(Cl)c2)[C@H]1c1ccc(Cl)cc1
- Drug metabolism [8]: metabolite_detected
- Drug metabolism [9]: metabolite_detected
- hepatocyte CLint ([2]; read-out: CLH): 13 µL/min/1e6 cells
- Drug metabolism [10]: metabolite_notdetected
- Drug metabolism [11]: metabolite_detected
- Drug metabolism [12]: metabolite_detected
- half-life [3]: 5.7 h
- Drug metabolism [13]: metabolite_detected
- hepatocyte CLint [14]: 3 µL/min/1e6 cells
- hepatocyte CLint [15]: 6 µL/min/1e6 cells
- Drug metabolism [16]: metabolite_notdetected
- Drug metabolism [17]: metabolite_notdetected
- Drug metabolism [18]: metabolite_notdetected
- Drug metabolism [19]: metabolite_detected
- hepatocyte CLint [1]: 1 µL/min/1e6 cells
- clearance [6]: 5.83 mL/min/kg

Results, then the compound that gave them:

- hepatocyte CLint [1]: 10 µL/min/1e6 cells
Compound: CC[C@@H](CS(=O)(=O)c1ccccc1)N1C(=O)[C@@H](CC(=O)O)O[C@H](c2cccc(Cl)c2)[C@H]1c1ccc(Cl)cc1

- hepatocyte CLint [1]: 19 µL/min/1e6 cells
Compound: CC[C@@H](CS(=O)(=O)N(C)C)N1C(=O)[C@@H](CC(=O)O)O[C@H](c2cccc(Cl)c2)[C@H]1c1ccc(Cl)cc1

- hepatocyte CLint [1]: 2.1 µL/min/1e6 cells
Compound: CC[C@@H](CS(=O)(=O)C(C)C)N1C(=O)[C@@H](CC(=O)O)O[C@H](c2cccc(Cl)c2)[C@H]1c1ccc(Cl)cc1

- hepatocyte CLint [1]: < 0.1 µL/min/1e6 cells
Compound: CC[C@@H](CN(c1ccccc1F)S(=O)(=O)C1CC1)N1C(=O)[C@@H](CC(=O)O)O[C@H](c2cccc(Cl)c2)[C@H]1c1ccc(Cl)cc1

- hepatocyte CLint [1]: 7 µL/min/1e6 cells
Compound: CC[C@@H](CN(c1ccc(F)cc1)S(=O)(=O)C1CC1)N1C(=O)[C@@H](CC(=O)O)O[C@H](c2cccc(Cl)c2)[C@H]1c1ccc(Cl)cc1

- hepatocyte CLint [1]: 4.7 µL/min/1e6 cells
Compound: CC[C@@H](CN(c1ccccc1F)S(C)(=O)=O)N1C(=O)[C@@H](CC(=O)O)O[C@H](c2cccc(Cl)c2)[C@H]1c1ccc(Cl)cc1

- hepatocyte CLint [1]: 3.3 µL/min/1e6 cells
Compound: CC[C@@H](CN(c1ccccc1)S(=O)(=O)C1CC1)N1C(=O)[C@@H](CC(=O)O)O[C@H](c2cccc(Cl)c2)[C@H]1c1ccc(Cl)cc1

- hepatocyte CLint [1]: 4.8 µL/min/1e6 cells
Compound: CC[C@@H](CN(c1ccc(F)cc1F)S(=O)(=O)C1CC1)N1C(=O)[C@@H](CC(=O)O)O[C@H](c2cccc(Cl)c2)[C@H]1c1ccc(Cl)cc1

- hepatocyte CLint [1]: 0.7 µL/min/1e6 cells
Compound: C[C@@H](CS(=O)(=O)C(C)(C)C)N1C(=O)[C@@H](CC(=O)O)O[C@H](c2cccc(Cl)c2)[C@H]1c1ccc(Cl)cc1

- hepatocyte CLint [1]: 2.1 µL/min/1e6 cells
Compound: CC(C)(C)[C@@H](CS(=O)(=O)C(C)(C)C)N1C(=O)[C@@H](CC(=O)O)O[C@H](c2cccc(Cl)c2)[C@H]1c1ccc(Cl)cc1
